Patent US20050124021A1 (priority 2000, published 2005)

Legend:
Rv1170 [1] = molecular target: T1, Rv1170 (Mycobacterium tuberculosis, UniProt P9WJN3); type: biochemical, M. tuberculosis
Rv1170 [2] = molecular target: T1, Rv1170; type: biochemical, M. tuberculosis; remark: listed apart in the source
[3] = system: M. smegmatis strain 49::H37Rv A18

T1 sequence (P9WJN3 whole entry, looked up): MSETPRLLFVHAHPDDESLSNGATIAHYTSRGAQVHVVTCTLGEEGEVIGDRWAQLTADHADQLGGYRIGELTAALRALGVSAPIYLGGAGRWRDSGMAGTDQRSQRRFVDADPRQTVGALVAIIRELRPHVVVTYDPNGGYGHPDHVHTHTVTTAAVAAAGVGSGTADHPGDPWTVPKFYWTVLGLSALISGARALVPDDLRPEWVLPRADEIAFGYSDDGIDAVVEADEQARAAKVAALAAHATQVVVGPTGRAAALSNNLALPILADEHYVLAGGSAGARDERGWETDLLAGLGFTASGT

CC(=O)N[C@@H](CS)C(=O)N[C@H]1[C@@H](OC2[C@H](O)[C@H](O)C(O)[C@H](O)[C@H]2O)O[C@H](CO)[C@@H](O)[C@@H]1O (stereo partly drawn) [MSH, 1-D-myo-inosityl-2-(N-acetylcysteinyl)amido-2-deoxy-α-D-glucopyranoside]
Activity, deacetylase reaction (analysis for amine / deacetylase product) (Rv1170 [1]): <10^−4 nmol min^−1 mg of protein^−1 | Deacetylated by the invention deacetylase (Rv1170 [1]): neither MSH nor MSmB is deacetylated | Activity, amidase cleavage (analysis for AcCySmB or AcCys) (Rv1170 [2]): 0.002 ± 0.001 nmol min^−1 mg of protein^−1

CC(=O)N[C@H]1C(O)O[C@H](CO)[C@@H](O)[C@@H]1O (stereo partly drawn) [GlcNAc, N-acetylglucosamine]
Activity, deacetylase reaction (analysis for amine / deacetylase product) (Rv1170 [1]): 0.087 ± 0.005 nmol min^−1 mg of protein^−1 | Decrease in reactivity versus GlcNAc-Ins (removal of inositol residue) (Rv1170 [1]): more than 300 fold

OO [H2O2, hydrogen peroxide]
Reduction of the peroxide sensitivity of mutant 49 [3]: by a factor of two
